Data published in the CATMoS acute toxicity set (Mansouri et al. 2021).
“And” between values parts separate entries of the source, which are not always exact repeats. Equal entries are not always repeated.

experiment: rat acute oral toxicity; settings: in vivo

Q: Which LD50 does the source give for `CCC(C(c1ccc(Cl)cc1)c1ccc(Cl)cc1)[N+](=O)[O-]` (stereo not drawn) here?
A: 300 mg/kg

Q: For `ClC(Cl)C(Cl)Cl`, which LD50 is on record?
A: 200 mg/kg

Q: For `Oc1ccccc1-c1ccccc1`, which LD50 is on record?
A: 718 mg/kg

Q: With `CSc1nc(NC(C)C)nc(NC(C)C)n1` as the compound, how does the LD50 read?
A: 1940 mg/kg

Q: For `CCCCCCCCCCCCCCN(C)C`, which LD50 is on record?
A: 1320 mg/kg

Q: For `ClC1=C(Cl)C2(Cl)C3C(Cl)C=CC3C1(Cl)C2(Cl)Cl` (stereo not drawn), which LD50 is on record?
A: 40 mg/kg

Q: With `COC(=O)C(N)Cc1cnc[nH]1` (stereo not drawn) as the compound, how does the LD50 read?
A: 1370 mg/kg

Q: For `O=[N+]([O-])c1cc(Cl)ccc1Cl`, which LD50 is on record?
A: 1000 mg/kg

Q: Which LD50 does the source give for `CCCC=C(C=O)CC` here?
A: 3000 mg/kg

Q: Which LD50 does the source give for `CCOC(=O)CC(O)(CC(=O)OCC)C(=O)OCC` here?
A: 5900 mg/kg

Q: Which LD50 does the source give for `CN(C)CCCN1c2ccccc2Sc2ccc(Cl)cc21` here?
A: 142 mg/kg and 143 mg/kg

Q: With `Cc1cccc(N=C=O)c1` as the compound, how does the LD50 read?
A: 2930 mg/kg

Q: Which LD50 does the source give for `Cc1cccc(N)c1` here?
A: 450 mg/kg

Q: Which LD50 does the source give for `CCCCOC(=O)CO` here?
A: 4240 mg/kg

Q: With `O=C(OCC1CCC2OC2C1)C1CCC2OC2C1` (stereo not drawn) as the compound, how does the LD50 read?
A: 4490 mg/kg

Q: With `Cc1ccccc1C` as the compound, how does the LD50 read?
A: 3520 mg/kg

Q: For `NC(=O)c1ccccc1O`, which LD50 is on record?
A: 980 mg/kg

Q: For `O=P(OC(CCl)CCl)(OC(CCl)CCl)OC(CCl)CCl`, which LD50 is on record?
A: 1850 mg/kg

Q: Which LD50 does the source give for `CC(C)COC(=O)c1ccccc1C(=O)OCC(C)C` here?
A: 10400 mg/kg

Q: Which LD50 does the source give for `CCCCN` here?
A: 366 mg/kg

Q: With `CCCCCCCCCc1ccc(OCCOCCO)cc1` as the compound, how does the LD50 read?
A: 1310 mg/kg

Q: For `OCCOCCO`, which LD50 is on record?
A: 12600 mg/kg

Q: For `Clc1cc2c(c(Cl)c1Cl)Oc1c(cc(Cl)c(Cl)c1Cl)O2`, which LD50 is on record?
A: 0.8 mg/kg

Q: Which LD50 does the source give for `CCc1ccccc1` here?
A: 3500 mg/kg

Q: With `C=CCOC(C)=O` as the compound, how does the LD50 read?
A: 130 mg/kg

Q: With `CCOCCOC(C)=O` as the compound, how does the LD50 read?
A: 2700 mg/kg

Q: For `CN(C)c1ccccc1`, which LD50 is on record?
A: 951 mg/kg

Q: For `CCC1(c2ccccc2)C(=O)NC(=O)NC1=O`, which LD50 is on record?
A: 162 mg/kg

Q: Which LD50 does the source give for `C=Cc1cc(Br)ccc1Br` here?
A: 5790 mg/kg

Q: With `S=c1sc2nc3ccccc3nc2s1` as the compound, how does the LD50 read?
A: 1800 mg/kg

Q: With `CNC(=O)Oc1cc(C)cc(C)c1` as the compound, how does the LD50 read?
A: 245 mg/kg

Q: With `O=C(Cl)c1ccc(Cl)cc1` as the compound, how does the LD50 read?
A: 3150 mg/kg

Q: With `CC[C@H]1OC(=O)C[C@@H](O)[C@H](C)[C@@H](O[C@@H]2O[C@H](C)[C@@H](O)[C@H](N(C)C)[C@H]2O)[C@@H](CCN2C[C@H](C)C[C@H](C)C2)C[C@@H](C)C(=O)C=CC(C)=C[C@@H]1CO[C@@H]1O[C@H](C)[C@@H](O)[C@@H](OC)[C@H]1OC` as the compound, how does the LD50 read?
A: 800 mg/kg

Q: Which LD50 does the source give for `c1ccc(Nc2ccccc2)cc1` here?
A: 1120 mg/kg

Q: For `COc1ccc(C(c2ccc(OC)cc2)C(Cl)(Cl)Cl)cc1`, which LD50 is on record?
A: 1860 mg/kg

Q: With `CC(C)=O` as the compound, how does the LD50 read?
A: 5800 mg/kg

Q: With `O=C1CCCC(=O)O1` as the compound, how does the LD50 read?
A: 540 mg/kg

Q: With `CCOc1ccc(CCCCCCC(C)C)cc1` as the compound, how does the LD50 read?
A: 5600 mg/kg

Q: Which LD50 does the source give for `CCCCOCC1CO1` (stereo not drawn) here?
A: 1660 mg/kg

Q: For `Cc1ccccc1O`, which LD50 is on record?
A: 121 mg/kg

Q: For `CCCCC(CC)COC(=O)c1ccccc1` (stereo not drawn), which LD50 is on record?
A: 2500 mg/kg

Q: With `COC(=O)c1ccccc1C(=O)OC` as the compound, how does the LD50 read?
A: 2860 mg/kg

Q: For `O=C(O)c1ccc2cc(O)ccc2c1`, which LD50 is on record?
A: 947 mg/kg

Q: For `CCOC=O`, which LD50 is on record?
A: 1850 mg/kg

Q: Which LD50 does the source give for `C=Cc1ccccc1` here?
A: 1000 mg/kg

Q: With `CCOCCO` as the compound, how does the LD50 read?
A: 1520 mg/kg

Q: Which LD50 does the source give for `C=CCCl` here?
A: 284 mg/kg

Q: For `C=CC(=O)NC(C)(C)CS(=O)(=O)O`, which LD50 is on record?
A: 1830 mg/kg

Q: Which LD50 does the source give for `CNC(=O)CSP(=O)(OC)OC` here?
A: 25 mg/kg

Q: Which LD50 does the source give for `COc1c(Cl)ccc(Cl)c1C(=O)O` here?
A: 757 mg/kg

Q: With `Cn1cnc([N+](=O)[O-])c1Sc1ncnc2nc[nH]c12` as the compound, how does the LD50 read?
A: 400 mg/kg

Q: For `S=C=S`, which LD50 is on record?
A: 1200 mg/kg

Q: With `CC(C)(C)CCCCCCCCCN` as the compound, how does the LD50 read?
A: 300 mg/kg

Q: Which LD50 does the source give for `Cn1cnc2c1c(=O)[nH]c(=O)n2C` here?
A: 950 mg/kg

Q: Which LD50 does the source give for `Cc1ccc2nc(-c3ccc(N)cc3)sc2c1` here?
A: 5650 mg/kg

Q: For `CCCC(O)C(CC)CO` (stereo not drawn), which LD50 is on record?
A: 1400 mg/kg

Q: With `CCC(C)(C)OC` as the compound, how does the LD50 read?
A: 1600 mg/kg

Q: Which LD50 does the source give for `C=C(C)C(=O)OCCN(C)C` here?
A: 455 mg/kg

Q: With `NCCNCCN` as the compound, how does the LD50 read?
A: 1080 mg/kg

Q: For `COc1ccc(O)c(C(C)(C)C)c1`, which LD50 is on record?
A: 2910 mg/kg

Q: Which LD50 does the source give for `CC(C)(C)c1ccc(O)c(O)c1` here?
A: 815 mg/kg

Q: With `Cc1ccc(N)cc1Cl` as the compound, how does the LD50 read?
A: 302 mg/kg

Q: Which LD50 does the source give for `CCC[N+](C)(C)CC[N+](C)(C)CCO` here?
A: 1850 mg/kg

Q: Which LD50 does the source give for `c1ccc2ncccc2c1` here?
A: 331 mg/kg

Q: Which LD50 does the source give for `CCCCCc1cc(O)c2c(c1)OC(C)(C)[C@@H]1CCC(C)=C[C@@H]21` here?
A: 666 mg/kg

Q: For `O=c1oc2ccccc2c(O)c1C1CC(c2ccc(-c3ccc(Br)cc3)cc2)Cc2ccccc21` (stereo not drawn), which LD50 is on record?
A: 0.16 mg/kg

Q: With `C#CCOC(=O)[C@@H](C)Oc1ccc(Oc2ncc(Cl)cc2F)cc1` as the compound, how does the LD50 read?
A: 2230 mg/kg

Q: Which LD50 does the source give for `CC(C)N(C(=O)CO)c1ccc(F)cc1` here?
A: 474 mg/kg
